Assay results published in PubChem BioAssay AID328 (DTP/NCI, 2004).
Where “and” joins values, the source holds several entries; their conditions need not be identical. Identical values can stand only once. Inconclusive results and toxic doses are left out.

System: BDF1 mice, P388 leukemia ip, median survival T/C
Experiment: NCI In Vivo Anticancer Drug Screen. Data for tumor model P388 Leukemia (intraperitoneal) in B6D2F1 (BDF1) mice
Details: endpoint: median survival time, higher = longer survival
Procedure, shortened: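 Vehicle-dosed animals serve as the reference; survival of compound-dosed, tumour-implanted mice is divided by it.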

[1] = dose: 37.5 mg/kg/injection, schedule: Q01DX009 (ip), vehicle: saline with Tween-80
[2] = dose: 50.0 mg/kg/injection, schedule: Q04DX003 (ip), vehicle: saline with Tween-80
[3] = dose: 25.0 mg/kg/injection, schedule: Q01DX009 (ip), vehicle: saline with Tween-80
[4] = dose: 25.0 mg/kg/injection, schedule: Q04DX003 (ip), vehicle: saline with Tween-80
[5] = dose: 50.0 mg/kg/injection, schedule: Q01DX009 (ip), vehicle: saline with Tween-80
[6] = dose: 100.0 mg/kg/injection, schedule: Q01DX009 (ip), vehicle: saline with Tween-80
[7] = dose: 200.0 mg/kg/injection, schedule: Q01DX009 (ip), vehicle: saline with Tween-80
[8] = dose: 100.0 mg/kg/injection, schedule: Q04DX003 (ip), vehicle: saline with Tween-80
[9] = dose: 200.0 mg/kg/injection, schedule: Q04DX003 (ip), vehicle: saline with Tween-80
[10] = dose: 400.0 mg/kg/injection, schedule: Q04DX003 (ip), vehicle: saline with Tween-80
[11] = dose: 150.0 mg/kg/injection, schedule: Q01DX009 (ip), vehicle: saline with Tween-80
[12] = dose: 6.25 mg/kg/injection, schedule: Q04DX003 (ip), vehicle: Klucel (hydroxypropylcellulose) (HPC)
[13] = dose: 12.5 mg/kg/injection, schedule: Q04DX003 (ip), vehicle: Klucel (hydroxypropylcellulose) (HPC)

With `CN=C(N)c1ccc(N=C(N)c2ccc(N=C(N)c3ccc(N=C(O)c4cccc(C(O)=Nc5ccc(C(N)=Nc6ccc(C(N)=Nc7ccc(C(N)=NC)cc7)cc6)cc5)c4)cc3)cc2)cc1` the T/C (dose: 4.0 mg/kg/injection, schedule: Q01DX009 (ip), vehicle: saline with Tween-80) was 154 % of control, the T/C (dose: 4.0 mg/kg/injection, schedule: Q04DX003 (ip), vehicle: saline with Tween-80) was 123 % of control and the T/C (dose: 6.0 mg/kg/injection, schedule: Q04DX003 (ip), vehicle: saline with Tween-80) was 150 % of control. For the same compound, the T/C (dose: 8.0 mg/kg/injection, schedule: Q01DX009 (ip), vehicle: saline with Tween-80) was 177 % of control, the T/C (dose: 9.0 mg/kg/injection, schedule: Q04DX003 (ip), vehicle: saline with Tween-80) was 168 % of control and the T/C (dose: 11.0 mg/kg/injection, schedule: Q01DX009 (ip), vehicle: saline with Tween-80) was 200 % of control. The T/C (dose: 12.0 mg/kg/injection, schedule: Q01DX009 (ip), vehicle: saline with Tween-80) was 166 % of control, the T/C (dose: 14.0 mg/kg/injection, schedule: Q04DX003 (ip), vehicle: saline with Tween-80) was 168 % of control and the T/C (dose: 16.0 mg/kg/injection, schedule: Q01DX009 (ip), vehicle: saline with Tween-80) was 181 % of control and 183 % of control. For the same compound, the T/C (dose: 16.5 mg/kg/injection, schedule: Q01DX009 (ip), vehicle: saline with Tween-80) was 227 % of control, the T/C (dose: 22.0 mg/kg/injection, schedule: Q04DX003 (ip), vehicle: saline with Tween-80) was 159 % of control and 177 % of control and 204 % of control and the T/C (dose: 33.0 mg/kg/injection, schedule: Q04DX003 (ip), vehicle: saline with Tween-80) was 250 % of control and 177 % of control. The T/C [1] was 233 % of control and 194 % of control, the T/C [2] was 250 % of control and 190 % of control and the T/C (dose: 75.0 mg/kg/injection, schedule: Q04DX003 (ip), vehicle: saline with Tween-80) was 231 % of control and 200 % of control.

With `CCCCOc1ccc(C(=O)NN)cc1` the T/C (dose: 6.25 mg/kg/injection, schedule: Q01DX009 (ip), vehicle: saline with Tween-80) was 118 % of control, the T/C (dose: 6.25 mg/kg/injection, schedule: Q04DX003 (ip), vehicle: saline with Tween-80) was 100 % of control and the T/C (dose: 12.5 mg/kg/injection, schedule: Q01DX009 (ip), vehicle: saline with Tween-80) was 108 % of control. The T/C (dose: 12.5 mg/kg/injection, schedule: Q04DX003 (ip), vehicle: saline with Tween-80) was 91 % of control and 92 % of control, the T/C [3] was 99 % of control and the T/C [4] was 90 % of control and 106 % of control. The T/C [5] was 115 % of control, the T/C [2] was 97 % of control and 98 % of control and the T/C [6] was 97 % of control.

With `OC(Nc1nccs1)C(Cl)(Cl)Cl` (centres undefined) the T/C [5] was 104 % of control, the T/C [6] was 110 % of control and the T/C [7] was 94 % of control.

For `C[C@]12CC[C@@H]3c4ccc(O)cc4CC[C@H]3[C@@H]1CCC(=O)O2`, the T/C (dose: 100.0 mg/kg/injection, schedule: Q01DX009 (ip), vehicle: Klucel (hydroxypropylcellulose) (HPC)) was 91 % of control, the T/C (dose: 100.0 mg/kg/injection, schedule: Q04DX003 (ip), vehicle: Klucel (hydroxypropylcellulose) (HPC)) was 104 % of control and the T/C (dose: 200.0 mg/kg/injection, schedule: Q01DX009 (ip), vehicle: Klucel (hydroxypropylcellulose) (HPC)) was 91 % of control. For the same compound, the T/C (dose: 200.0 mg/kg/injection, schedule: Q04DX003 (ip), vehicle: Klucel (hydroxypropylcellulose) (HPC)) was 90 % of control and the T/C (dose: 400.0 mg/kg/injection, schedule: Q04DX003 (ip), vehicle: Klucel (hydroxypropylcellulose) (HPC)) was 100 % of control.

`Cc1cccc2c1C(=O)OC2(C)c1cccc2ccccc12` (centres undefined) was tested, and the T/C [2] was 99 % of control, the T/C [8] was 96 % of control and the T/C [9] was 118 % of control. The T/C [10] was 95 % of control.

`Oc1ccc(OCc2ccccc2)cc1` was tested, and the T/C (dose: 100.0 mg/kg/injection, schedule: Q04DX003 (ip), vehicle: other) was 100 % of control, the T/C (dose: 200.0 mg/kg/injection, schedule: Q04DX003 (ip), vehicle: other) was 104 % of control and the T/C (dose: 400.0 mg/kg/injection, schedule: Q04DX003 (ip), vehicle: other) was 100 % of control.

With `S=C(S)NNc1ccccc1` the T/C [3] was 86 % of control, the T/C [4] was 110 % of control and the T/C [5] was 100 % of control. The T/C [2] was 105 % of control, the T/C [6] was 100 % of control and the T/C [8] was 100 % of control.

With `CCCCOC(=O)C(N)Cc1ccc(OC)c(N(CCCl)CCCl)c1` (centres undefined) the T/C (dose: 3.0 mg/kg/injection, schedule: Q04DX003 (ip), vehicle: saline) was 250 % of control and the T/C (dose: 6.0 mg/kg/injection, schedule: Q04DX003 (ip), vehicle: saline) was 108 % of control.

With `COC(=O)c1ccc(COc2ccc([N+](=O)[O-])cc2Cl)cc1` the T/C (dose: 44.0 mg/kg/injection, schedule: Q01DX009 (ip), vehicle: saline with Tween-80) was 90 % of control, the T/C (dose: 66.0 mg/kg/injection, schedule: Q01DX009 (ip), vehicle: saline with Tween-80) was 90 % of control and the T/C [6] was 90 % of control. For the same compound, the T/C [11] was 86 % of control, the T/C (dose: 176.0 mg/kg/injection, schedule: Q04DX003 (ip), vehicle: saline with Tween-80) was 100 % of control and the T/C [7] was 115 % of control. For the same compound, the T/C (dose: 264.0 mg/kg/injection, schedule: Q04DX003 (ip), vehicle: saline with Tween-80) was 100 % of control, the T/C (dose: 400.0 mg/kg/injection, schedule: Q01DX009 (ip), vehicle: saline with Tween-80) was 105 % of control and the T/C [10] was 90 % of control.

For `CNC(=S)N/N=C(/C)CCC(=O)O`, the T/C (dose: 6.75 mg/kg/injection, schedule: Q01DX009 (ip), vehicle: saline with Tween-80) was 87 % of control, the T/C (dose: 13.5 mg/kg/injection, schedule: Q01DX009 (ip), vehicle: saline with Tween-80) was 88 % of control and the T/C (dose: 27.0 mg/kg/injection, schedule: Q01DX009 (ip), vehicle: saline with Tween-80) was 86 % of control.

For `O=C(Nc1ccccc1)Nn1cnc2ccccc2c1=O`, the T/C [8] was 90 % of control, the T/C [9] was 100 % of control and the T/C [10] was 100 % of control.

In the case of `C1CSCSC1`, the T/C [12] is reported as 100 % of control, the T/C [13] is reported as 95 % of control and the T/C (dose: 25.0 mg/kg/injection, schedule: Q04DX003 (ip), vehicle: Klucel (hydroxypropylcellulose) (HPC)) is reported as 87 % of control.

With `COc1cccc(N)c1N` the T/C (dose: 50.0 mg/kg/injection, schedule: Q01DX009 (ip), vehicle: suspension in saline) was 124 % of control and the T/C (dose: 200.0 mg/kg/injection, schedule: Q01DX009 (ip), vehicle: suspension in saline) was 98 % of control.

With `C=[CH][Sn]([CH]=C)([CH]=C)[O]C(C)=O` the T/C (dose: 1.56 mg/kg/injection, schedule: Q01DX009 (ip), vehicle: Klucel (hydroxypropylcellulose) (HPC)) was 101 % of control, the T/C (dose: 1.56 mg/kg/injection, schedule: Q04DX003 (ip), vehicle: Klucel (hydroxypropylcellulose) (HPC)) was 91 % of control and the T/C (dose: 3.12 mg/kg/injection, schedule: Q01DX009 (ip), vehicle: Klucel (hydroxypropylcellulose) (HPC)) was 101 % of control and 109 % of control. The T/C (dose: 3.12 mg/kg/injection, schedule: Q04DX003 (ip), vehicle: Klucel (hydroxypropylcellulose) (HPC)) was 92 % of control, the T/C (dose: 6.25 mg/kg/injection, schedule: Q01DX009 (ip), vehicle: Klucel (hydroxypropylcellulose) (HPC)) was 110 % of control and 117 % of control and the T/C [12] was 94 % of control and 101 % of control. For the same compound, the T/C (dose: 12.5 mg/kg/injection, schedule: Q01DX009 (ip), vehicle: Klucel (hydroxypropylcellulose) (HPC)) was 153 % of control and 160 % of control, the T/C (dose: 12.5 mg/kg/injection, schedule: Q01DX009 (ip), vehicle: saline) was 153 % of control and 162 % of control and the T/C [13] was 104 % of control and 106 % of control. The T/C (dose: 25.0 mg/kg/injection, schedule: Q01DX009 (ip), vehicle: saline) was 86 % of control.

In the case of `O.O=c1[nH]cc(Cl)c(=O)[nH]1.[NH2-].[NH2-].[Pt+2]`, the T/C (dose: 6.25 mg/kg/injection, schedule: Q01DX009 (ip), vehicle: water) is reported as 118 % of control, the T/C (dose: 12.5 mg/kg/injection, schedule: Q01DX009 (ip), vehicle: water) is reported as 155 % of control and the T/C (dose: 12.5 mg/kg/injection, schedule: Q04DX003 (ip), vehicle: water) is reported as 123 % of control. For the same compound, the T/C (dose: 25.0 mg/kg/injection, schedule: Q01DX009 (ip), vehicle: water) was 229 % of control and 171 % of control, the T/C (dose: 25.0 mg/kg/injection, schedule: Q04DX003 (ip), vehicle: water) was 166 % of control and the T/C (dose: 50.0 mg/kg/injection, schedule: Q01DX009 (ip), vehicle: water) was 192 % of control. The T/C (dose: 50.0 mg/kg/injection, schedule: Q04DX003 (ip), vehicle: water) was 200 % of control.

With `O=C(NC1=NN(c2ccccc2)C(=O)C1)c1ccccc1` the T/C [1] was 105 % of control and the T/C [11] was 96 % of control.

For `CCCCN(CCCC)c1ccc([N+](=O)[O-])c2no[n+]([O-])c12`, the T/C (dose: 15.0 mg/kg/injection, schedule: Q01DX009 (ip), vehicle: saline with Tween-80) was 96 % of control, the T/C (dose: 30.0 mg/kg/injection, schedule: Q01DX009 (ip), vehicle: saline with Tween-80) was 92 % of control and the T/C (dose: 60.0 mg/kg/injection, schedule: Q01DX009 (ip), vehicle: saline with Tween-80) was 91 % of control.
